In the supplement of paper PMC10307832:

Experiments:
Assay in all cases: relative viability (nuclei count vs DMSO), 5 days (fraction); higher = more cells survive
[1] = compound: CN[C@@H]1C[C@H]2O[C@@](C)([C@@H]1OC)n1c3ccccc3c3c4c(c5c6ccccc6n2c5c31)C(=O)NC4 [Staurosporine] + C[C@]1(O)C[C@@H](c2nc(-c3ccc4ccc(-c5ccccc5)nc4c3)c3c(N)nccn32)C1 [Linsitinib] (partner 1 µM)
In short: (§1)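 One day after seeding in 1536-well plates, lung cancer cell lines were dosed by pin tool. Dosing was either single-drug or a fixed anchor-drug dose plus five library-drug doses (not always all listed) in √10 steps. After 5 days, nuclei were stained in one fix-and-stain step and counted on 4× images, and relative viability is the nuclei count of treated wells over that of vehicle wells, given as the median of duplicate plates.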

Sulindac + Olaparib = compound: CC1=C(CC(=O)O)c2cc(F)ccc2/C1=C\c1ccc([S+](C)[O-])cc1 [Sulindac] + O=C(c1cc(Cc2n[nH]c(=O)c3ccccc23)ccc1F)N1CCN(C(=O)C2CC2)CC1 [Olaparib] (partner 8 µM)
In short: as §1

Sulindac + Tozasertib = compound: CC1=C(CC(=O)O)c2cc(F)ccc2/C1=C\c1ccc([S+](C)[O-])cc1 [Sulindac] + Cc1cc(Nc2cc(N3CCN(C)CC3)nc(Sc3ccc(NC(=O)C4CC4)cc3)n2)n[nH]1 [Tozasertib] (partner 0.1 µM)
In short: as §1

[2] = compound: CN[C@@H]1C[C@H]2O[C@@](C)([C@@H]1OC)n1c3ccccc3c3c4c(c5c6ccccc6n2c5c31)C(=O)NC4 [Staurosporine] + N=C(N)NC(=N)NCCc1ccccc1 [Phenformin] (partner 250 µM)
In short: as §1

Cell Line	relative viability ([1]; first compound 0.005 µM)	relative viability ([1]; first compound 0.05 µM)	relative viability ([1]; first compound 0.1581 µM)	relative viability ([1]; first compound 0.5 µM)	relative viability (Sulindac + Olaparib; first compound 0.08 µM)	relative viability (Sulindac + Olaparib; first compound 0.253 µM)	relative viability (Sulindac + Olaparib; first compound 0.8 µM)	relative viability (Sulindac + Olaparib; first compound 2.53 µM)	relative viability (Sulindac + Olaparib; first compound 8 µM)	relative viability (Sulindac + Tozasertib; first compound 0.08 µM)	relative viability (Sulindac + Tozasertib; first compound 0.253 µM)	relative viability (Sulindac + Tozasertib; first compound 0.8 µM)	relative viability (Sulindac + Tozasertib; first compound 2.53 µM)	relative viability (Sulindac + Tozasertib; first compound 8 µM)	relative viability ([2]; first compound 0.005 µM)	relative viability ([2]; first compound 0.01581 µM)	relative viability ([2]; first compound 0.05 µM)	relative viability ([2]; first compound 0.1581 µM)	relative viability ([2]; first compound 0.5 µM)	relative viability ([1]; first compound 0.01581 µM)
A-427	1.05	0.43	0.313	0.189	0.74	0.787	0.8	0.742	0.821	0.176	0.198	0.193	0.177	0.206	0.189	0.114	0.109	0.0973	0.123	–
PC-14	0.892	0.0982	0.0802	0.0859	0.271	0.321	0.272	0.209	0.272	0.605	0.659	0.538	0.575	0.685	0.26	0.129	0.0894	0.0651	0.0636	0.633
LCLC-97TM1	0.237	0.163	0.207	0.144	0.481	0.531	0.473	0.308	0.606	0.231	0.289	0.217	0.163	0.247	0.212	0.171	0.184	0.158	0.149	0.163
BEN	1.23	0.436	0.52	0.245	0.964	1.07	1	1.05	1.06	0.46	0.449	0.519	0.462	0.566	0.247	–	0.211	0.197	0.184	0.923
NCI-H2085	0.745	0.541	0.38	0.337	0.742	0.79	0.711	0.792	0.837	0.789	0.842	0.829	0.797	0.807	–	0.197	0.312	0.151	0.174	0.502
LC-2-ad	0.817	0.192	0.0865	0.0668	0.746	0.677	0.676	0.686	0.66	0.382	0.451	0.374	0.391	0.46	0.485	0.2	0.154	–	0.171	0.434
ABC-1	0.195	0.145	0.108	0.0957	1.1	0.611	0.769	0.591	0.601	0.12	0.147	0.157	0.162	0.183	0.169	0.205	0.0951	0.0728	0.105	0.209
NCI-H661	0.458	0.258	0.245	0.226	0.971	0.789	0.59	0.742	0.836	0.351	0.336	0.362	0.362	0.38	0.277	0.235	0.27	0.19	0.131	0.384
EPLC-272H	1.17	0.352	0.25	0.234	0.828	0.852	0.72	0.639	0.727	0.152	0.25	–	0.25	0.408	0.22	0.0782	0.0721	0.0546	0.0603	0.732
NCI-H1437	–	0.255	0.128	0.0812	0.748	0.679	0.503	0.638	0.665	0.438	0.434	0.32	0.397	0.429	0.247	–	0.187	0.11	0.118	0.43
EKVX	0.624	0.22	0.183	0.109	0.736	0.929	0.718	0.803	0.93	0.417	0.334	0.345	0.434	0.407	0.172	0.119	0.159	0.142	0.118	0.357
NCI-H1651	0.827	0.331	0.122	0.0924	0.17	0.189	0.162	0.177	0.169	0.755	0.66	–	0.686	0.666	0.293	0.155	0.16	0.0842	0.0807	0.587
HCC-15	0.921	0.656	0.444	0.276	0.747	0.763	0.68	0.702	0.765	0.29	0.423	0.318	0.421	0.37	0.344	–	0.19	0.112	0.0964	–
LCLC-103H	1.25	0.352	0.206	0.212	0.856	0.757	0.695	0.798	0.82	0.439	0.512	0.508	0.47	0.48	0.296	0.211	0.16	0.108	0.105	0.717
NCI-H2347	0.899	0.402	0.446	0.351	0.546	0.599	0.562	0.574	0.616	0.522	0.615	–	0.528	0.598	0.269	0.253	0.201	0.216	0.165	0.732
NCI-H1915	1.11	0.61	0.486	0.342	0.241	0.266	0.245	0.254	0.264	0.505	0.451	–	0.423	0.416	0.332	0.087	0.181	0.0813	0.0841	–
NCI-H650	0.472	0.249	0.197	0.177	0.442	0.431	0.341	0.425	0.472	0.76	0.744	0.71	0.607	0.757	0.285	0.257	0.26	0.189	0.164	0.289

Cell Line	relative viability ([1]; first compound 0.005 µM)	relative viability ([1]; first compound 0.05 µM)	relative viability ([1]; first compound 0.1581 µM)	relative viability ([1]; first compound 0.5 µM)	relative viability (Sulindac + Olaparib; first compound 0.08 µM)	relative viability (Sulindac + Olaparib; first compound 0.253 µM)	relative viability (Sulindac + Olaparib; first compound 0.8 µM)	relative viability (Sulindac + Olaparib; first compound 2.53 µM)	relative viability (Sulindac + Olaparib; first compound 8 µM)	relative viability (Sulindac + Tozasertib; first compound 0.08 µM)	relative viability (Sulindac + Tozasertib; first compound 0.253 µM)	relative viability (Sulindac + Tozasertib; first compound 0.8 µM)	relative viability (Sulindac + Tozasertib; first compound 2.53 µM)	relative viability (Sulindac + Tozasertib; first compound 8 µM)	relative viability ([2]; first compound 0.005 µM)	relative viability ([2]; first compound 0.01581 µM)	relative viability ([2]; first compound 0.05 µM)	relative viability ([2]; first compound 0.1581 µM)	relative viability ([2]; first compound 0.5 µM)	relative viability ([1]; first compound 0.01581 µM)
NCI-H596	1.34	0.854	0.385	0.148	0.567	0.697	–	0.716	0.639	0.877	0.939	0.913	0.946	1	0.797	0.323	0.383	0.249	0.194	0.854
HCC-366	0.623	0.0843	0.0298	0.013	0.338	0.356	–	0.399	0.508	0.104	0.148	0.199	0.111	0.198	0.708	–	0.519	0.283	0.0201	–
NCI-H2087	0.71	0.356	0.296	0.153	0.606	0.722	0.54	0.468	0.571	0.237	0.284	–	0.293	0.233	0.364	0.214	0.14	0.0795	0.0731	0.712
RERF-LC-KJ	0.895	0.431	0.213	0.166	0.949	1.01	0.971	0.861	1.07	0.569	0.56	0.521	0.307	0.568	0.209	0.269	0.225	0.241	0.229	0.804
HOP-62	1.07	0.117	0.111	0.108	0.3	0.677	0.351	0.266	0.545	0.409	0.41	–	0.386	0.426	0.426	0.232	0.133	0.102	0.1	0.604
NCI-H2126	0.797	0.461	0.376	0.366	1.12	0.923	0.87	0.951	1	0.887	0.905	0.895	0.754	0.934	0.483	0.245	0.336	0.237	0.245	0.553
SW 1573	0.586	0.144	0.131	0.107	0.52	0.523	0.528	0.478	0.551	0.183	0.144	–	0.172	0.163	0.201	0.156	0.0959	0.101	0.0586	0.449
NCI-H1793	0.879	0.582	0.465	0.209	0.963	0.934	–	0.973	1.08	0.283	0.283	0.349	0.33	0.336	0.453	–	0.357	–	0.129	0.558
SK-LU-1	0.313	0.205	0.2	0.145	0.498	0.525	0.446	0.407	0.536	0.286	0.347	0.342	0.288	0.406	0.235	0.111	–	0.0994	0.0726	0.263
H3255	0.814	0.303	0.226	0.116	0.573	0.531	0.501	0.557	0.553	0.593	0.546	0.413	0.616	0.619	0.326	0.28	0.249	0.181	0.14	0.549
EMC-BAC-2	0.457	0.122	0.152	0.133	0.493	0.488	0.476	0.46	0.566	0.269	0.298	0.287	0.278	0.315	0.252	0.179	0.17	0.189	0.164	0.394
CAL-12T	0.57	0.213	0.136	0.115	0.794	0.727	0.649	0.664	0.769	0.253	0.282	0.322	0.301	0.365	0.205	0.165	0.235	0.103	0.112	0.334
NCI-H727	0.225	0.268	0.277	0.129	0.588	0.519	0.648	0.769	0.707	0.609	1.78	–	0.451	0.795	0.404	0.319	0.379	0.219	0.146	0.234
SK-MES-1	0.836	0.318	0.267	0.153	0.733	0.825	0.56	0.712	0.772	1.07	1.01	0.848	0.956	1.09	0.345	0.267	0.185	0.132	0.219	0.403
NCI-H1355	0.908	0.24	0.269	0.223	0.704	0.691	0.679	0.66	0.759	0.544	0.607	–	0.502	0.57	0.369	0.165	0.255	0.168	0.162	0.543
PC-3 [JPC-3]	0.986	0.723	0.559	0.478	1.36	1.09	0.941	1.13	1.25	0.982	0.984	0.828	0.868	0.878	–	0.394	0.352	0.247	0.181	–
